Drawing on patent EP4759805A1, “NLRP3 INFLAMMASOME INHIBITOR AND USE THEREOF” (NEUROCRINE BIOSCIENCES, INC., priority 2023, dated 2025), this text covers IC50 for eight compounds.

T1 sequence (Q96P20 whole entry): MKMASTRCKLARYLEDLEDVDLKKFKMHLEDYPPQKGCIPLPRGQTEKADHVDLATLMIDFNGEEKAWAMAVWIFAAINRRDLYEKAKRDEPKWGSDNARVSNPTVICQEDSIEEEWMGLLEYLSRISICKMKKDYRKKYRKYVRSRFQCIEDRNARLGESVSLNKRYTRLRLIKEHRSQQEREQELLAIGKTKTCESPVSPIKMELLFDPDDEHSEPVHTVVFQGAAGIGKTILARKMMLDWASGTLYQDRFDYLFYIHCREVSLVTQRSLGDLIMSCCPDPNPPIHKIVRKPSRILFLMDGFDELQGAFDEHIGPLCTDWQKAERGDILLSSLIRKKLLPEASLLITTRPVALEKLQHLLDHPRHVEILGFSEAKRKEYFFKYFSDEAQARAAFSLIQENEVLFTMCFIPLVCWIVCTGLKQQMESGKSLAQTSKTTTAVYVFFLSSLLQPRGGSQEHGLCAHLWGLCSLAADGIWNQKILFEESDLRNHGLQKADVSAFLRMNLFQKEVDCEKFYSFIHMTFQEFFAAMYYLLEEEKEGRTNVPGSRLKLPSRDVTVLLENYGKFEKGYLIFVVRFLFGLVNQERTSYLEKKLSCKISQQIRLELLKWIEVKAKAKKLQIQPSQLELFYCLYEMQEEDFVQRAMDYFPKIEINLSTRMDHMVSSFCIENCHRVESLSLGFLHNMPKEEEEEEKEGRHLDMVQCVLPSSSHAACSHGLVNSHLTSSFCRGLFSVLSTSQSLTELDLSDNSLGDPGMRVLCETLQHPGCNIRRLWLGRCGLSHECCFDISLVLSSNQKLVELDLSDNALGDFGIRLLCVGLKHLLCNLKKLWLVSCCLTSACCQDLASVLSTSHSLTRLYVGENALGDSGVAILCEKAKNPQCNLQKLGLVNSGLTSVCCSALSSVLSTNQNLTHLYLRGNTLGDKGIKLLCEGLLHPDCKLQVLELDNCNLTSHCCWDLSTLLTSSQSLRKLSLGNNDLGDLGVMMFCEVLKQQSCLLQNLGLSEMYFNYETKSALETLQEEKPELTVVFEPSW

This assay addresses T1, NLRP3 inflammasome (Homo sapiens, UniProt Q96P20).
T1 construct: endogenous in cells; host or cells: THP-1 cells (PMA-differentiated, LPS-primed, nigericin-stimulated)
Briefly: Cell assay of inhibitory activity against NLRP3 inflammasome in THP-1 cells (LPS/nigericin stimulation, caspase-1 glo readout). It is filed as cell-based. The note with it: PMA-differentiated THP-1 cells; LPS 500 ng/ml 3 h, compound 1 h, nigericin 10 µg/ml 30 min; active caspase-1 in supernatant. On the procedure: Experimental Example 1: Cell assay of inhibitory activity of the compounds of the present disclosure against NLRP3 inflammasome
Test compounds: the compounds of the present disclosure prepared in accordance with the methods described in the Examples
THP-1 was an immortalized human macrophage cell line.
Test instrument: Microplate reader (manufactured by PE)
• 1. THP-1 cells were cultured in 1640 complete medium (500 ml 1640+56 ml FBS+560 µl 1000× P/S+2 µl mercaptoethanol), and used within 3 to 20 passages. • 2. Coating of culture plates: 100 µl of polylysine solution was added into a 96-well cell culture plate and incubated at 37°C for 30min. The solution was discarded, and the plate was washed twice with PBS for later use. • 3. Induction of differentiation of THP-1: THP-1 cells were resuspended in an appropriate amount of complete medium containing 10 ng/ml PMA to achieve a cell density of 5×10^5 cells /ml in the suspension. The cell suspension was added into a 96-well plate with 100 µl of cell suspension per well, and the 96-well plate was cultured overnight for 16 hours in a 37°C CO2 cell incubator. • 4. Stimulation of THP-1: • a. Serum-free THP-1 culture medium containing LPS was added to achieve a final concentration of 500 ng/ml, and the resultant was cultured in a 37°C CO2 cell incubator for 3h; • b. The compounds to be tested were prepared into stock solutions at gradient concentrations with DMSO. The resulting solutions were added to the cells, evenly mixed, and finally diluted at 1:1000. The 96-well plate was cultured in a 37°C CO2 cell incubator for 1h. • c. Nigericin was added to each well to achieve a final concentration of 10 µg/ml, and the resultant was cultured in a 37°C CO2 cell incubator for 30 min. • d. The resulting culture medium in each well was transferred to a new culture plate, which was then centrifuged at 3000 rpm for 5min. Afterwards, the supernatant was transferred to a new 96-well plate. • e. The collected supernatant samples of the cell culture medium were determined by using a commercial caspase-1 glo kit, and the content of human active caspase-1 was determined according to the manufacturer's instructions.
For orientation: IC50 means the concentration that gives 50% inhibition. Compound `CNCC(=O)Nc1nnc(-c2ccc(C(F)(F)F)cc2O)c(C2CC2)n1` [Compound 60, N-(5-cyclopropyl-6-(2-hydroxy-4-(trifluoromethyl)phenyl)-1,2,4-triazin-3-yl)-2-(methylamino)acetamide] had an IC50 of 32.1 nM. This lies in the double-digit nanomolar range.

For `CNCC(=O)Nc1cc(C2CCC2)c(-c2ccc(C(F)(F)F)cc2O)nn1` [Compound 61, N-(5-cyclobutyl-6-(2-hydroxy-4-(trifluoromethyl)phenyl)pyridazin-3-yl)-2-(methylamino) acetamide], the IC50 was 6.2 nM. Compared with the last compound, the IC50 is about 5.2-fold lower. Under `C#Cc1ccc(-c2nnc(NC(=O)CNC)cc2C2CCC2)c(O)c1` [Compound 62, N-(5-cyclobutyl-6-(4-ethynyl-2-hydroxyphenyl)pyridazin-3-yl)-2-(methylamino)acetamide] stands 20.9 nM.

The compound `C[C@@H](N)C(=O)Nc1cc(C2CCC2)c(-c2ccc(C(F)(F)F)cc2O)nn1` [Compound 63, (R)-2-amino-N-(5-cyclobutyl-6-(2-hydroxy-4-(trifluoromethyl)phenyl)pyridazin-3-yl)prop anamide] showed an IC50 of 7.2 nM. This IC50 lies about 2.9-fold lower than the previous one. In the case of `CC(C)c1cc(NC(=O)[C@@H](C)N)nnc1-c1ccc(C(F)(F)F)cc1O` [Compound 64, (R)-2-amino-N-(6-(2-hydroxy-4-(trifluoromethyl)phenyl)-5-isopropylpyridazin-3-yl)propa namide] it was 14.1 nM. In the case of `C#Cc1ccc(-c2nnc(NC(=O)[C@@H](C)N)cc2C2CCC2)c(O)c1` [Compound 65, (R)-2-amino-N-(5-cyclobutyl-6-(4-ethynyl-2-hydroxyphenyl)pyridazin-3-yl)propanamide] it was 31.5 nM. Under `C#Cc1ccc(-c2nnc(NC(=O)[C@@H](C)N)cc2C(C)C)c(O)c1` [Compound 66, (R)-2-amino-N-(6-(4-ethynyl-2-hydroxyphenyl)-5-isopropylpyridazin-3-yl)propanamide] stands 13.9 nM. As to `CNCC(=O)Nc1cc(C2CC2)c(-c2ccc(Cl)cc2O)nn1` [Compound 67, N-(6-(4-chloro-2-hydroxyphenyl)-5-cyclopropylpyridazin-3-yl)-2-(methylamino)acetamide], the IC50 came out at 5.6 nM.
